What was measured:
[1] = target: T1, AMP-activated protein kinase (AMPK) alpha-1/beta-1/gamma-1 (Homo sapiens) (UniProt P54619+Q9Y478+Q13131); assay: Activation of recombinant AMPK alpha1/beta1/gamma1 (unknown origin) at 10 uM relative to control; assay type: protein-complex assay; conditions: filed as activator
Cannabinoid receptor 1 [2] = target: T2, Cannabinoid receptor 1 (Mus musculus, UniProt P47746); assay: Displacement of [3H][…] from CB1 receptor in mouse brain plasma membrane by radioligand displacement analysis; assay type: cell membranes
[3] = target: T1, AMP-activated protein kinase (AMPK) alpha-1/beta-1/gamma-1 (Homo sapiens); assay: Activation of recombinant AMPK alpha1/beta1/gamma1 (unknown origin) at 1 uM relative to control; assay type: protein-complex assay; conditions: filed as activator
Cannabinoid receptor 1 [4] = target: T2, Cannabinoid receptor 1; assay: Antagonist activity at CB1 receptor in mouse brain membrane assessed as inhibition of […]-induced GTPgammaS binding by [35S]GTPgammaS binding analysis; assay type: functional, cell membranes
[5] = Drug uptake in C57BL/6J mouse brain at 10 mg/kg, po measured after 1 hr by LC-MS/MS analysis; assay type: ADME, organism-based; conditions: read-out: Drug uptake
[6] = Drug uptake in C57BL/6J mouse plasma at 10 mg/kg, po measured after 1 hr by LC-MS/MS analysis; assay type: ADME, organism-based

T2 sequence (P47746 whole entry): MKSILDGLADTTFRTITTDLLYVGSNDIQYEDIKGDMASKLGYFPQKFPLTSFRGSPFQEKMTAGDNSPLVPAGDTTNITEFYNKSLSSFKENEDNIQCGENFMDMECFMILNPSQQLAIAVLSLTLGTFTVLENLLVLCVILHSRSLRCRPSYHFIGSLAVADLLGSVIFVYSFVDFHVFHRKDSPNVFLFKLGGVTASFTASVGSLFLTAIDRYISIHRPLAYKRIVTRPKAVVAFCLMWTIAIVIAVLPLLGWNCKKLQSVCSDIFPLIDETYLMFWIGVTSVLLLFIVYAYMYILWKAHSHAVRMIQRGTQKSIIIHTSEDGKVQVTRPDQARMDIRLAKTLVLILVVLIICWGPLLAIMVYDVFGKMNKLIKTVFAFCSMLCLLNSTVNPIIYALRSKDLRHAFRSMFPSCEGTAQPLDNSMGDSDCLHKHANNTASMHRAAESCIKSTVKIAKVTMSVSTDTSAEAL
T1 sequence (P54619 whole entry): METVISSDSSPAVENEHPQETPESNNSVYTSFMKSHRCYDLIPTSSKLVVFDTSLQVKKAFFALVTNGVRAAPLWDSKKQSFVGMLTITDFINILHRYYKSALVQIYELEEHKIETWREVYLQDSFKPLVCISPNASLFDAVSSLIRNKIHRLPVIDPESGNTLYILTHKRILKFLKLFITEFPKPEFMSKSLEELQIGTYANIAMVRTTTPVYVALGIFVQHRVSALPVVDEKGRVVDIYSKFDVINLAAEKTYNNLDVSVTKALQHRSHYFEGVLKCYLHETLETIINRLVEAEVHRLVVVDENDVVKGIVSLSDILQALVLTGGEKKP
T1 sequence (Q13131 whole entry partner): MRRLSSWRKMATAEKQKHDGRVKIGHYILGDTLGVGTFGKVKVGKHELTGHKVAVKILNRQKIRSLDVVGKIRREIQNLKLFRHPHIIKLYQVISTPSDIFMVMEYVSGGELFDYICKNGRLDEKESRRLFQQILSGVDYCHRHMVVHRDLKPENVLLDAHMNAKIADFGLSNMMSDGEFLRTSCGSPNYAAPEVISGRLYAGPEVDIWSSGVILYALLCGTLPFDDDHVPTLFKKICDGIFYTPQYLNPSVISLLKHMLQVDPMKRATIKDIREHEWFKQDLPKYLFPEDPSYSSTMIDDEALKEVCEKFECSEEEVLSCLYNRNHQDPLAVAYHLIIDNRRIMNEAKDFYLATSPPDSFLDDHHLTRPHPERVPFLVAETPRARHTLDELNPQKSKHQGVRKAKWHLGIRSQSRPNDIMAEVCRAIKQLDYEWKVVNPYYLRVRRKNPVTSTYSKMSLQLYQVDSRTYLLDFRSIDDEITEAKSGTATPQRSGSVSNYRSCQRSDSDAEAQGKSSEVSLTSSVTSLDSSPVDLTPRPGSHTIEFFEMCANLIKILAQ
T1 sequence (Q9Y478 2-270 partner limits assumed): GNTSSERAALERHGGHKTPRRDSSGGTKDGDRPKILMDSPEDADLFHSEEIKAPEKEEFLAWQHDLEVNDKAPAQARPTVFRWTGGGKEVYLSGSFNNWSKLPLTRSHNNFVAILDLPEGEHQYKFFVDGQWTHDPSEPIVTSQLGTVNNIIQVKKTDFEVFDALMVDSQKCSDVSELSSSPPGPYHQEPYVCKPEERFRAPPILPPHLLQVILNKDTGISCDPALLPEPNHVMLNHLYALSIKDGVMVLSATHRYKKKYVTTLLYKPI

| Activity [1] | Ki (Cannabinoid receptor 1 [2]) | Activity [3] | IC50 (Cannabinoid receptor 1 [4]) | concentration at 1 h [5] | concentration at 1 h [6] | SMILES |
| --- | --- | --- | --- | --- | --- | --- |
| 145% |  |  |  |  |  | CC(C)N/C(N)=N/C(=N/S(=O)(=O)c1ccc(Cl)cc1)N1CC(c2ccccc2)C(c2ccc(Cl)cc2)=N1 (centres undefined) |
| 136% |  |  |  |  |  | N/C(=N\C(=N\S(=O)(=O)c1ccc(Cl)cc1)N1CC(c2ccccc2)C(c2ccc(Cl)cc2)=N1)NCCc1ccccc1 (centres undefined) |
| 182% |  |  |  |  |  | CN1CCN(/C(N)=N/C(=N/S(=O)(=O)c2ccc(Cl)cc2)N2CC(c3ccccc3)C(c3ccc(Cl)cc3)=N2)CC1 (centres undefined) |
|  | 3.2 nM | 121% | 2.8 nM |  |  | CC(=O)N/C(N)=N/C(=N/S(=O)(=O)c1ccc(I)cc1)N1CC(c2ccccc2)C(c2ccc(Cl)cc2)=N1 (centres undefined) |
| 155% |  |  |  |  |  | COCCN(CCOC)/C(N)=N/C(=N/S(=O)(=O)c1ccc(Cl)cc1)N1CC(c2ccccc2)C(c2ccc(Cl)cc2)=N1 (centres undefined) |
|  | 0.8 nM | 100% | 25 nM |  |  | N/C(=N\C(=N\S(=O)(=O)c1ccc(Cl)cc1)N1CC(c2ccccc2)C(c2ccc(Cl)cc2)=N1)NC(=O)c1ccccc1 (centres undefined) |
| 114% | 5.3 nM |  |  |  |  | CC(=O)N/C(N)=N/C(=N/S(=O)(=O)c1ccc(OC(F)(F)F)cc1)N1C[C@@H](c2ccccc2)C(c2ccc(Cl)cc2)=N1 |
| 113% |  | 113% | 53 nM |  |  | CCN(CC)/C(N)=N/C(=N/S(=O)(=O)c1ccc(Cl)cc1)N1CC(c2ccccc2)C(c2ccc(Cl)cc2)=N1 (centres undefined) |
|  | 0.4 nM | 91% | 5.8 nM |  |  | CC(=O)N/C(N)=N/C(=N/S(=O)(=O)c1ccc(C#N)cc1)N1CC(c2ccccc2)C(c2ccc(Cl)cc2)=N1 (centres undefined) |
|  | 2.8 nM | 91% | 6 nM |  |  | CCC(=O)N/C(N)=N/C(=N/S(=O)(=O)c1ccc(Cl)cc1)N1CC(c2ccccc2)C(c2ccc(Cl)cc2)=N1 (centres undefined) |
|  | 13 nM | 98% | 16 nM |  |  | COc1ccc(S(=O)(=O)/N=C(/N=C(\N)NC(C)=O)N2CC(c3ccccc3)C(c3ccc(Cl)cc3)=N2)cc1 (centres undefined) |
|  | 1.6 nM | 152% | 7 nM | 1.9 ng/g | 44 ng/mL | CC(=O)N/C(N)=N/C(=N/S(=O)(=O)N1CCCCC1)N1CC(c2ccccc2)C(c2ccc(Cl)cc2)=N1 (centres undefined) |
| 135% |  |  |  |  |  | N/C(=N\C(=N\S(=O)(=O)c1ccc(Cl)cc1)N1CC(c2ccccc2)C(c2ccc(Cl)cc2)=N1)N1CCCC1 (centres undefined) |
| 156% |  |  |  |  |  | COCCN/C(N)=N/C(=N/S(=O)(=O)c1ccc(Cl)cc1)N1CC(c2ccccc2)C(c2ccc(Cl)cc2)=N1 (centres undefined) |
|  | 16 nM | 117% | 6.1 nM |  |  | CC(=O)N/C(N)=N/C(=N/S(=O)(=O)c1ccc2ccccc2c1)N1CC(c2ccccc2)C(c2ccc(Cl)cc2)=N1 (centres undefined) |
| 153% |  |  |  |  |  | CN(Cc1ccccc1)/C(N)=N/C(=N/S(=O)(=O)c1ccc(Cl)cc1)N1CC(c2ccccc2)C(c2ccc(Cl)cc2)=N1 (centres undefined) |
| 100% |  | 100% | 84 nM |  |  | CC(C)(N/C(N)=N/C(=N/S(=O)(=O)c1ccc(Cl)cc1)N1CC(c2ccccc2)C(c2ccc(Cl)cc2)=N1)c1ccccc1 (centres undefined) |
| 124% |  | 124% | 47 nM |  |  | CN(C)/C(N)=N/C(=N/S(=O)(=O)c1ccc(Cl)cc1)N1CC(c2ccccc2)C(c2ccc(Cl)cc2)=N1 (centres undefined) |
| 172% |  |  |  |  |  | CCCCN(CC)/C(N)=N/C(=N/S(=O)(=O)c1ccc(Cl)cc1)N1CC(c2ccccc2)C(c2ccc(Cl)cc2)=N1 (centres undefined) |
|  | 8.5 nM | 98% | 68 nM |  |  | COc1ccc(S(=O)(=O)/N=C(/N=C(\N)NC(=O)c2ccccc2)N2CC(c3ccccc3)C(c3ccc(Cl)cc3)=N2)cc1 (centres undefined) |
|  | 2.3 nM | 95% | 10 nM |  |  | CC(=O)N/C(N)=N/C(=N/S(=O)(=O)c1ccc(F)cc1)N1CC(c2ccccc2)C(c2ccc(Cl)cc2)=N1 (centres undefined) |
|  | 5.5 nM | 96% | 14 nM |  |  | N/C(=N\C(=N\S(=O)(=O)c1ccc(I)cc1)N1CC(c2ccccc2)C(c2ccc(Cl)cc2)=N1)NC(=O)c1ccccc1 (centres undefined) |
|  | 6.8 nM | 93% | 21 nM |  |  | CC(=O)N/C(N)=N/C(=N/S(=O)(=O)c1ccccc1)N1CC(c2ccccc2)C(c2ccc(Cl)cc2)=N1 (centres undefined) |
| 139% |  |  |  |  |  | CN/C(N)=N/C(=N/S(=O)(=O)c1ccc(Cl)cc1)N1CC(c2ccccc2)C(c2ccc(Cl)cc2)=N1 (centres undefined) |
|  | 2.9 nM | 142% | 3.1 nM |  |  | CC(=O)N/C(N)=N/C(=N/S(=O)(=O)c1ccc(Cl)cc1)N1CC(c2ccccc2)C(c2ccc(Cl)cc2)=N1 (centres undefined) |
|  | > 1000 nM |  |  |  |  | N/C(=N\C(=N\S(=O)(=O)c1ccc(Cl)cc1)N1CC(c2ccccc2)C(c2ccc(Cl)cc2)=N1)NC12C[C@H]3C[C@@H](C1)C[C@@H](C2)C3 (some centres undefined) |

| Activity [1] | Ki (Cannabinoid receptor 1 [2]) | Activity [3] | IC50 (Cannabinoid receptor 1 [4]) | concentration at 1 h [5] | concentration at 1 h [6] | SMILES |
| --- | --- | --- | --- | --- | --- | --- |
| 130% | 103 nM |  |  |  |  | CC(=O)N/C(N)=N/C(=N/S(=O)(=O)c1ccc(Cl)cc1)N1C[C@@H](c2ccccc2)C(c2ccc(Cl)cc2)=N1 |
| 166% |  |  |  |  |  | N/C(=N\C(=N\S(=O)(=O)c1ccc(Cl)cc1)N1CC(c2ccccc2)C(c2ccc(Cl)cc2)=N1)N1CCCCC1 (centres undefined) |
|  | 78 nM |  |  |  |  | CC(=O)N/C(N)=N/C(=N/S(=O)(=O)c1ccc2ccccc2c1)N1C[C@@H](c2ccccc2)C(c2ccc(Cl)cc2)=N1 |
|  | 0.7 nM | 142% | 2 nM | 4 ng/g | 26 ng/mL | CC(=O)N/C(N)=N/C(=N/S(=O)(=O)N1CCC(F)(F)CC1)N1CC(c2ccccc2)C(c2ccc(Cl)cc2)=N1 (centres undefined) |
| 175% |  | 175% | 396 nM |  |  | CCCN(CCC)/C(N)=N/C(=N/S(=O)(=O)c1ccc(Cl)cc1)N1CC(c2ccccc2)C(c2ccc(Cl)cc2)=N1 (centres undefined) |
|  |  | 118% | 1.4 nM |  |  | CC(=O)N/C(N)=N/C(=N/S(=O)(=O)c1ccc(C(C)(C)C)cc1)N1CC(c2ccccc2)C(c2ccc(Cl)cc2)=N1 (centres undefined) |
|  | 415 nM |  |  |  |  | NC(N)=N/C(=N/S(=O)(=O)c1ccc(Cl)cc1)N1CC(c2ccccc2)C(c2ccc(Cl)cc2)=N1 (centres undefined) |
|  | > 1000 nM |  |  |  |  | N/C(=N\C(=N\S(=O)(=O)c1ccc(Cl)cc1)N1CC(c2ccccc2)C(c2ccc(Cl)cc2)=N1)NCC12C[C@H]3C[C@@H](C1)C[C@@H](C2)C3 (some centres undefined) |
| 157% |  |  |  |  |  | C=CCN(CC=C)/C(N)=N/C(=N/S(=O)(=O)c1ccc(Cl)cc1)N1CC(c2ccccc2)C(c2ccc(Cl)cc2)=N1 (centres undefined) |
| 127% |  |  |  |  |  | N/C(=N\C(=N\S(=O)(=O)c1ccc(Cl)cc1)N1CC(c2ccccc2)C(c2ccc(Cl)cc2)=N1)N1CCOCC1 (centres undefined) |
|  | 3 nM | 101% | 6.1 nM |  |  | N/C(=N\C(=N\S(=O)(=O)c1ccc(C(F)(F)F)cc1)N1CC(c2ccccc2)C(c2ccc(Cl)cc2)=N1)NC(=O)c1ccccc1 (centres undefined) |
| 122% | 55 nM |  |  |  |  | CC(=O)N/C(N)=N/C(=N/S(=O)(=O)c1ccc(I)cc1)N1C[C@@H](c2ccccc2)C(c2ccc(Cl)cc2)=N1 |
|  | 2.3 nM | 162% | 2 nM |  |  | CC(=O)N/C(N)=N/C(=N/S(=O)(=O)N1CCOCC1)N1CC(c2ccccc2)C(c2ccc(Cl)cc2)=N1 (centres undefined) |
|  | 8.6 nM | 96% | 19 nM |  |  | CC(=O)N/C(N)=N/C(=N/S(=O)(=O)c1ccc(C)cc1)N1CC(c2ccccc2)C(c2ccc(Cl)cc2)=N1 (centres undefined) |
|  |  | 125% | 3.2 nM |  |  | CC(=O)N/C(N)=N/C(=N/S(=O)(=O)c1ccc(OC(F)(F)F)cc1)N1CC(c2ccccc2)C(c2ccc(Cl)cc2)=N1 (centres undefined) |
|  | 8.1 nM | 90% | 66 nM |  |  | N/C(=N\C(=N\S(=O)(=O)c1ccc2ccccc2c1)N1CC(c2ccccc2)C(c2ccc(Cl)cc2)=N1)NC(=O)c1ccccc1 (centres undefined) |
| 114% | 37 nM |  |  |  |  | CC(=O)N/C(N)=N/C(=N/S(=O)(=O)N1CCC(C(F)(F)F)CC1)N1C[C@@H](c2ccccc2)C(c2ccc(Cl)cc2)=N1 |
|  | 13 nM | 104% | 86 nM |  |  | N/C(=N\C(=N\S(=O)(=O)c1ccc(OC(F)(F)F)cc1)N1CC(c2ccccc2)C(c2ccc(Cl)cc2)=N1)NC(=O)c1ccccc1 (centres undefined) |
|  | 0.8 nM | 116% | 2.5 nM | 0.21 ng/g | 28 ng/mL | CC(=O)N/C(N)=N/C(=N/S(=O)(=O)N1CCC(C(F)(F)F)CC1)N1CC(c2ccccc2)C(c2ccc(Cl)cc2)=N1 (centres undefined) |
| 149% |  |  |  |  |  | N/C(=N\C(=N\S(=O)(=O)c1ccc(Cl)cc1)N1CC(c2ccccc2)C(c2ccc(Cl)cc2)=N1)NCc1ccccc1 (centres undefined) |
|  | 3.3 nM | 96% | 5.5 nM |  |  | CCC(=O)N/C(N)=N/C(=N/S(=O)(=O)c1ccc(C(F)(F)F)cc1)N1CC(c2ccccc2)C(c2ccc(Cl)cc2)=N1 (centres undefined) |
|  | 1.3 nM | 152% | 2.1 nM |  |  | CCN(CC)S(=O)(=O)/N=C(/N=C(\N)NC(C)=O)N1CC(c2ccccc2)C(c2ccc(Cl)cc2)=N1 (centres undefined) |
| 126% |  | 126% | 230 nM |  |  | CC(C)(C)N/C(N)=N/C(=N/S(=O)(=O)c1ccc(Cl)cc1)N1CC(c2ccccc2)C(c2ccc(Cl)cc2)=N1 (centres undefined) |
|  | 0.6 nM | 94% | 4.9 nM |  |  | CC(=O)N/C(N)=N/C(=N/S(=O)(=O)c1ccc(Br)cc1)N1CC(c2ccccc2)C(c2ccc(Cl)cc2)=N1 (centres undefined) |
|  | 25 nM | 102% | 59 nM |  |  | Cc1ccc(S(=O)(=O)/N=C(/N=C(\N)NC(=O)c2ccccc2)N2CC(c3ccccc3)C(c3ccc(Cl)cc3)=N2)cc1 (centres undefined) |

| SMILES | Activity [1] | Ki (Cannabinoid receptor 1 [2]) | Activity [3] | IC50 (Cannabinoid receptor 1 [4]) | concentration at 1 h [5] | concentration at 1 h [6] |
| --- | --- | --- | --- | --- | --- | --- |
| CN=C(NS(=O)(=O)c1ccc(Cl)cc1)N1C[C@H](c2ccccc2)C(c2ccc(Cl)cc2)=N1 [IBIPINABANT] |  | 8.1 nM |  |  |  |  |
| CN/C(=N\S(=O)(=O)c1ccc(Cl)cc1)N1C[C@H](c2ccccc2)C(c2ccc(Cl)cc2)=N1 | 100% |  |  |  |  |  |
| CC(=O)N/C(N)=N/C(=N/S(=O)(=O)c1ccc(C(C)C)cc1)N1CC(c2ccccc2)C(c2ccc(Cl)cc2)=N1 (centres undefined) |  | 3.7 nM | 119% | 1.7 nM |  |  |

Source: ChEMBL document CHEMBL5365437, “Cannabinoformins: Designing Biguanide-Embedded, Orally Available, Peripherally Selective Cannabinoid-1 Receptor Antagonists for Metabolic Syndrome Disorders” (J Med Chem, 2023)
